Read-outs that look alike come from different tables or passages of the source.
Experiments:
[1] = Toxicokinetics, 14-day intranasal study in rats (Study 700041); format: in vivo; details: Sprague Dawley, rat, plasma, inhaled or intranasal; for AUC(0-t): read-out: AUC0-Tlast [SE]; for AUC(0-inf): read-out: AUCINF_obs
Experimental: The animals were monitored for mortality, clinical signs, respiratory measurements, body weights, food consumption, and body temperature. Ophthalmoscopic examinations and respiratory function tests were performed on all animals at scheduled timepoints. Clinical pathology assessments (hematology, coagulation, clinical chemistry, and urinalysis) were evaluated at termination. […] Following dosing, the Main animals were euthanized and subjected to a complete necropsy examination on Day 15. […] TK animals were euthanized after the last blood collection and discarded without further examination. At terminal euthanasia, selected tissues/organs were weighed, and microscopic evaluations of a standard set of tissues including the nasal turbinates (4 sections) and brain (7 sections) were performed for all Main and Recovery study animals.
Following dosing, animals in the Main group were euthanized and subjected to a necropsy examination on Day 15.

[2] = test system: Salmonella typhimurium tester strains; experiment: Bacterial Reverse Mutation Test (Ames test), Salmonella typhimurium
[3] = female, 5 mg/kg/day, Day 1, Female
[4] = female, 5 mg/kg/day, Day 14, Female
[5] = female, 20 mg/kg/day, Day 1, Female
[6] = female, 75 mg/kg/day, Day 1, Female
[7] = female, 75 mg/kg/day, Day 14, Female
[8] = male, 5 mg/kg/day, Day 14, Male
[9] = male, 20 mg/kg/day, Day 1, Male
[10] = male, 20 mg/kg/day, Day 14, Male
[11] = male, 75 mg/kg/day, Day 1, Male
[12] = male, 75 mg/kg/day, Day 14, Male

Work on `COc1ccc2[nH]cc(CCN(C)C)c2c1` [5MeODMT, 5-methoxy-N,N-dimethyltryptamine] yielded a Tmax ([1]; both sexes, 75 mg/kg, rats, 14-day intranasal study, 5, 20, 75 mg/kg) of 2 to 5 min, a half-life ([1]; both sexes, 75 mg/kg, rats, 14-day intranasal study, 5, 20, 75 mg/kg, read-out: apparent t1/2) of 6.8 to 9.4 min and a Cmax [1, 3] of 186 ng/mL. It also gave a Tmax [1, 3] of 9.96 min, an AUC(0-t) [1, 3] of 53.2 ng·h/mL and an AUC(0-inf) [1, 3] of 53.7 ng·h/mL. The Cmax [1, 4] was 645 ng/mL, the AUC(0-t) [1, 4] was 63.8 ng·h/mL and the AUC(0-inf) [1, 4] was 64 ng·h/mL. It also gave a half-life ([1]; female, 5 mg/kg/day, Day 14, Female, read-out: t1/2 (converted)) of 6.78 min, a Cmax [1, 5] of 679 ng/mL and an AUC(0-t) [1, 5] of 198 ng·h/mL. It also gave an AUC(0-inf) [1, 5] of 198 ng·h/mL, a Cmax ([1]; female, 20 mg/kg/day, Day 14, Female) of 795 ng/mL and a Cmax [1, 6] of 1310 ng/mL. The AUC(0-t) [1, 6] was 228 ng·h/mL, the AUC(0-inf) [1, 6] was 228 ng·h/mL and the half-life ([1]; female, 75 mg/kg/day, Day 1, Female, read-out: t1/2 (converted)) was 9.36 min. For the same compound, the Cmax [1, 7] was 870 ng/mL, the AUC(0-t) [1, 7] was 155 ng·h/mL and the half-life ([1]; female, 75 mg/kg/day, Day 14, Female, read-out: t1/2 (converted)) was 7.8 min. It also gave a Cmax ([1]; male, 5 mg/kg/day, Day 1, Male) of 191 ng/mL, an AUC(0-t) ([1]; male, 5 mg/kg/day, Day 1, Male) of 39.9 ng·h/mL and an AUC(0-inf) ([1]; male, 5 mg/kg/day, Day 1, Male) of 40.1 ng·h/mL. It also gave a Cmax [1, 8] of 627 ng/mL, an AUC(0-t) [1, 8] of 114 ng·h/mL and an AUC(0-inf) [1, 8] of 115 ng·h/mL. For the same compound, the Cmax [1, 9] was 4190 ng/mL, the AUC(0-t) [1, 9] was 420 ng·h/mL and the AUC(0-inf) [1, 9] was 421 ng·h/mL. For the same compound, the half-life ([1]; male, 20 mg/kg/day, Day 1, Male, read-out: t1/2 (converted)) was 7.5 min, the Cmax [1, 10] was 1200 ng/mL and the AUC(0-t) [1, 10] was 133 ng·h/mL. The AUC(0-inf) [1, 10] was 133 ng·h/mL, the half-life ([1]; male, 20 mg/kg/day, Day 14, Male, read-out: t1/2 (converted)) was 8.58 min and the Cmax [1, 11] was 7010 ng/mL. The AUC(0-t) [1, 11] was 1030 ng·h/mL, the AUC(0-inf) [1, 11] was 1040 ng·h/mL and the Cmax [1, 12] was 3290 ng/mL. For the same compound, the AUC(0-t) [1, 12] was 391 ng·h/mL, the AUC(0-inf) [1, 12] was 392 ng·h/mL and the half-life ([1]; male, 75 mg/kg/day, Day 14, Male, read-out: t1/2 (converted)) was 6.96 min. The Cytotoxicity ([2]; 1600 μg/plate, all S. typhimurium strains) was “slight cytotoxicity”, the “Repeat test, revertant colonies” value ([2]; TA1537 and TA98, absence of S9 mix, up to 2000 μg/plate) was “no increases in the revertant colonies number per plate” and the “Mutagenic potential (conclusion)” value ([2]; absence or presence of S9) was “no mutagenic potential”.
